This note sets out measurements from PMC9115111, “Metalloprotease Gp63-Targeting Novel Glycoside Exhibits Potential Antileishmanial Activity” (Frontiers in Cellular and Infection Microbiology, 2022).

The CC50 is the concentration giving 50% cytotoxicity. Read a high CC50 as lower toxicity to the cells. What is called IC50 is the midpoint of a concentration-inhibition curve. A low value points to greater potency.

The test system of data set [1] is J774.A1 murine macrophage cells. Description: MTT cell viability assay on macrophages. Format: cell-based. As to the method:
(§1) The J774.A1 murine macrophage cells were grown in Roswell Park Memorial Institute (RPMI) 1640 medium in the presence of 10% (v/v) FBS and 100 U/ml penicillin−100 µg/ml streptomycin (Gibco, Invitrogen, Thermo Fisher Scientific, NY, USA) at 37°C (humidified) and 5% CO2. […] Madin–Darby canine kidney (MDCK) cells were obtained from the National Centre for Cell Science, Pune, India. MDCK cells were derived from the kidney tissue of an adult female Cocker Spaniel. These were grown in Dulbecco’s modified Eagle’s minimal essential medium (DMEM) in the presence of 10% (v/v) FBS and 100 U/ml penicillin−100 µg/ml streptomycin (Gibco, Invitrogen, Thermo Fisher Scientific, NY, USA) at 37°C (humidified) and 5% CO2 ([Ayana et al., 2018]; [Shivappagowdar et al., 2021]).
(§2) All the compounds were dissolved in dimethyl sulfoxide (DMSO) (Sigma-Aldrich) for 1 mM stock solution and were screened against promastigotes at a concentration of 5 µM. For Glycosides (Gly) 2, 6, and 8, a range of concentrations starting from 100 nM to 100 µM were screened against promastigote forms of parasite and mammalian cells. Parasites (AG83 and PKDL strain) treated with amphotericin B (3 µg/ml) (Sigma-Aldrich) were maintained as the positive control.
(§3) To evaluate the cytotoxic effects of 12 compounds on L. donovani promastigotes, LDH assay was performed. This assay involves the reduction of tetrazolium salts to formazan during LDH-mediated catalysis of lactate to pyruvate, which can be detected at […]. Rate of formazan formation is proportional to the release of LDH through damaged cell membranes. For the preliminary screening, the promastigotes were incubated with 12 compounds at a single concentration of 5 µM for a period of 72 h, and the released LDH was estimated ( Supplementary Figure S1A ). Amphotericin B-treated promastigotes were taken as the positive control. […] Having observed the antileishmanial effect of Gly2 on growth and proliferation of promastigotes, we next investigated the cytotoxicity of Gly2 on mammalian cells (MDCK, J774.1A) through MTT (3-(4, 5-dimethylthiazolyl-2)-2, 5-diphenyltetrazolium bromide) cell viability assay ( Supplementary Figures S1B, C ). […] The CC50 values of Gly2 analog was in the micromolar range. The selectivity index (SI) for the compound was calculated as the ratio between cytotoxicity (CC50) and activity (IC50) against promastigotes ( Table 1 ).

Data set [2] relates to L. donovani promastigotes (AG83 strain). Description: LDH cytotoxicity assay on promastigotes, AG83 strain. In kind it is cell-based, Leishmania donovani. As to the method: Promastigote forms of L. donovani (MHOM/IN/1983/AG83) were cultured at 26°C in M199 (GIBCO, India), pH 7.4, supplemented with 10% (v/v) inactivated fetal bovine serum (FBS, GIBCO, India) and 0.02 mg/ml gentamycin (Life Technologies, USA). The clinical isolate of PKDL, BS12, was obtained as a gift from Prof. Mitali Chatterjee [Department of Pharmacology, Institute of Postgraduate Medical Education and Research (IPGMER), Kolkata, India]. BS12 was routinely cultured at 22°C in M199 (GIBCO, India) with 100 U/ml penicillin-streptomycin (Gibco, Invitrogen, Thermo Fisher Scientific, NY, USA), 8 μM hemin (4 mM stock made in 50% triethanolamine) (Sigma, USA), 25 mM 4-(2-hydroxyethyl)-1-piperazineethanesulfonic acid (HEPES), supplemented with 10% heat-inactivated FBS (GIBCO, India). Cultures were maintained between 10^6 and 10^7 cells/ml for continuous exponential growth. In addition, 1 × 10^6 cells/ml parasite count was constantly maintained for all the experiments ([Ramu et al., 2017]).
as §2
AG83 strain of L. donovani were exposed to various Gly compound concentrations (100 nM–100 µM) in a 96-well microtiter plate (100 µl/well volume) and were incubated for 72 h at 26°C. Finally, lactate dehydrogenase (LDH) cytotoxic assay was performed as per standard protocol (CytoTox 96 Non-Radioactive Cytotoxicity Assay-Promega, USA). The percent cytotoxicity of test compounds was calculated by normalizing with amphotericin B as 100%. Further percentage growth inhibition was calculated using the formula:
% Growth Inhibition = Gly treated LDH activity- Spontaneous LDH activity
/Maximum LDH activity- Spontaneous LDH activity * 100
As per the formula, the spontaneous LDH Activity = activity of the untreated cells and the maximum LDH activity = activity of the amphotericin B-treated cells. IC50 value for Gly2, 6, and 8 treated was generated for AG83 and PKDL strain of L. donovani using sigmoidal dose–response model with nonlinear regression tool ([Ramu et al., 2017]).

The subject of data set [3] is L. donovani intracellular amastigotes in J774.A1 macrophages. Nature of the data set: Intramacrophage amastigote assay (Giemsa staining, J774.A1). In kind it is cell-based, Leishmania donovani. The following applies: treated at IC50 concentration, 24 h; untreated control ~5. How it is done: For evaluating the efficacy of compounds against intramacrophage amastigotes, Giemsa staining (Sigma-Aldrich) was performed. J774.A1 murine macrophage cells were plated at a cell density of 5 × 10^5 cell/well in a 6-well flat bottom plate. The cells were infected with late-stage L. donovani, rich in promastigotes at a ratio of 10:1. After 6 h, uninfected promastigotes were washed off with PBS.

For data set [4], the system named is L. donovani promastigotes. Nature of the data set: Hoechst/PI live/dead dual staining of promastigotes. In kind it is cell-based, Leishmania donovani. The following applies: 5 µM, 72 h. How it is done:
The toxic effect of the three compounds, Gly2, 6, and 8 on promastigotes at 5 µM >IC50 concentration was measured by Hoechst and propidium iodide (PI) double staining. […], parasites were harvested, washed in 0.01 M PBS (pH = 7.4), and stained with Hoechst 33258 (1 µg/ml) (Life Technologies, USA) and PI (5 µg/ml) (Life Technologies, USA) followed by incubation for a period of 20 min at 37°C. Subsequently, cells were washed for excessive stain removal and visualized using fluorescence microscope with 510–560-nm filter block for PI red fluorescence and excitation/emission spectra at 361/497 for Hoechst ([López-Arencibia et al., 2015]).

The nature of data set [5]: MTT cell viability assay on macrophages. In kind it is cell-based, murine. Conditions: mouse, J774.A1 macrophage cells; Table 1; macrophages. As to the method: as §1, §2, §3
In general terms: Formazan colour is commonly taken as a measure of viable cells.

Where [6] appears, read: Table 1, activity against promastigotes.
[7] abbreviates: Leishmania donovani, AG83 promastigotes, LDH assay 72 h, sigmoidal curve, normalised to amphotericin B 3 µg/ml as 100%.
Setting [8] is: Leishmania donovani, Table 1, activity against promastigotes.

On to `CCOC1O[C@H](CO)[C@@H](O)[C@H](O)[C@H]1NC(C)=O` (stereo partly drawn) [Gly1, ethyl glycoside N-Acetyl-D-glucosamine], for which the CC50 in data set [1] came out at 248 µM. In addition, the IC50 in data set [2] (setting [6]) was found to be 65 µM.

For the molecule `CCCCCCOC1O[C@H](CO)[C@@H](O)[C@H](O)[C@H]1O` (stereo partly shown) [Gly3], half-maximal cytotoxicity in data set [1] (CC50) was put at 1680 µM. The molecule further returned an IC50 in data set [2] (setting [6]) of 12.7 µM.

As for `CCCCOC1O[C@H](COC(C)=O)[C@@H](OC(C)=O)[C@H](OC(C)=O)[C@H]1OC(C)=O` (stereo partly shown) [Gly4], it took 167 µM to reach half-maximal cytotoxicity in data set [1] (CC50). The midpoint of inhibition in data set [2] (setting [6]), the IC50, lay at 4.6 µM.

`CCCCCCOC1O[C@H](COC(C)=O)[C@@H](OC(C)=O)[C@H](OC(C)=O)[C@H]1OC(C)=O` (stereo partly shown) [Gly5]: the CC50 in data set [1] was found to be 159 µM. In data set [2] (setting [6]), this molecule registered an IC50 of 5.97 µM.

Regarding `CC(=O)OC[C@H]1OC(OCCC(C)C)[C@H](OC(C)=O)[C@@H](OC(C)=O)[C@@H]1OC(C)=O` (stereo partly shown) [Gly6], the “number of amastigotes per infected macrophage” value in data set [3] was ~ 3 amastigotes/macrophages. Moreover, the “dead parasites (PI positive)” value in data set [4] is on record as ~ 33.72%. In data set [5], this molecule showed a CC50 of 1030 µM. Moreover, the IC50 came to 2.94 µM in data set [2] (setting [7]) and 3.4 µM in data set [2] (setting [8]).

In turn, `CCOC1O[C@H](COC(C)=O)[C@@H](OC(C)=O)[C@H](OC(C)=O)[C@H]1OC(C)=O` (stereo partly shown) [Gly7] registered a CC50 in data set [1] of 299 µM. In data set [2] (setting [6]), it took 77 µM to reach half-maximal inhibition (IC50).

For the molecule `CCCOC1O[C@H](COC(C)=O)[C@@H](OC(C)=O)[C@H](OC(C)=O)[C@H]1OC(C)=O` (stereo partly drawn) [Gly8, (2R,3R,4S,5R)-2-(acetoxymethyl)-6-propoxytetrahydro-2H-pyran-3,4,5-triyl triacetate], the “number of amastigotes per infected macrophage” value in data set [3] is listed as ~2 amastigotes/macrophages. Also, in data set [4], the “dead parasites (PI positive)” value amounted to 75.47%. Further, it took 959 µM to reach half-maximal cytotoxicity in data set [5] (CC50). Further, the IC50 in data set [2] (setting [7]) came to 1.61 µM; in data set [2] (setting [8]) it was 1.6 µM.

Molecule `CC(=O)OC[C@H]1OC(OC(C)C)[C@H](OC(C)=O)[C@@H](OC(C)=O)[C@@H]1OC(C)=O` (stereo partly shown) [Gly9] came in with a CC50 in data set [1] of 256 µM. This molecule also returned an IC50 in data set [2] (setting [6]) of 36 µM.

The molecule `CCCOC1O[C@H](COC(C)=O)[C@@H](OC(C)=O)[C@H](OC(C)=O)[C@H]1NC(C)=O` (stereo partly shown) [Gly10] showed a CC50 in data set [1] of 239 µM. In data set [2] (setting [6]), this molecule returned an IC50 of 25.2 µM.

For the molecule `CC(=O)N[C@H]1[C@@H](OCCC(C)C)O[C@H](COC(C)=O)[C@@H](OC(C)=O)[C@@H]1OC(C)=O` [Gly11], the CC50 in data set [1] is 179 µM. The same molecule registered an IC50 in data set [2] (setting [6]) of 43 µM.

On to `CCCCO[C@H]1O[C@H](COC(C)=O)[C@@H](OC(C)=O)[C@H](OC(C)=O)[C@H]1NC(C)=O` [Gly12], for which, in data set [1], the CC50 worked out at 279 µM. The IC50 in data set [2] (setting [6]) came to 95 µM.
